In the CheMixHub ionic liquid set:
± gives the uncertainty stated by the source.

Assay: xn = mol fraction of the nth substance listed

CCCCCCCCCCCCCCCC[N+](C)(C)C.[Br-] + OC[C@@H](O)[C@H](O)[C@@H](O)CO + O
viscosity [mPa·s], 100 kPa
Conditions	298.15 K	308.15 K	318.15 K
x1 = 7.19e-06, x2 = 0.002032	0.942 ± 0.06	0.778 ± 0.06	0.646 ± 0.06
x1 = 7.19e-06, x2 = 0.002472	0.952 ± 0.06	0.785 ± 0.06	0.652 ± 0.06
x1 = 7.19e-06, x2 = 0.002816	0.96 ± 0.061	0.791 ± 0.061	0.657 ± 0.06
x1 = 7.2e-06, x2 = 0.0009831	0.918 ± 0.06	0.759 ± 0.06	0.631 ± 0.06
x1 = 7.2e-06, x2 = 0.001215	0.923 ± 0.06	0.763 ± 0.06	0.634 ± 0.06
x1 = 7.2e-06, x2 = 0.00156	0.931 ± 0.06	0.769 ± 0.06	0.639 ± 0.06
x1 = 7.21e-06, x2 = 0	0.896 ± 0.06	0.742 ± 0.06	0.617 ± 0.06
x1 = 1.437e-05, x2 = 0.002971	0.97 ± 0.061	0.801 ± 0.061	0.664 ± 0.06
x1 = 1.438e-05, x2 = 0.002331	0.955 ± 0.06	0.789 ± 0.06	0.654 ± 0.06
x1 = 1.439e-05, x2 = 0.001497	0.935 ± 0.06	0.772 ± 0.06	0.641 ± 0.06
x1 = 1.439e-05, x2 = 0.002025	0.947 ± 0.06	0.783 ± 0.06	0.649 ± 0.06
x1 = 1.44e-05, x2 = 0.0008555	0.919 ± 0.06	0.76 ± 0.06	0.631 ± 0.06
x1 = 1.44e-05, x2 = 0.001291	0.929 ± 0.06	0.768 ± 0.06	0.638 ± 0.06
x1 = 1.442e-05, x2 = 0	0.898 ± 0.06	0.744 ± 0.06	0.617 ± 0.06
x1 = 2.156e-05, x2 = 0.002894	0.973 ± 0.061	0.804 ± 0.061	0.666 ± 0.06
x1 = 2.157e-05, x2 = 0.002365	0.96 ± 0.061	0.793 ± 0.06	0.657 ± 0.06
x1 = 2.158e-05, x2 = 0.002035	0.951 ± 0.06	0.786 ± 0.06	0.651 ± 0.06
x1 = 2.159e-05, x2 = 0.001618	0.941 ± 0.06	0.778 ± 0.06	0.644 ± 0.06
x1 = 2.16e-05, x2 = 0.0009365	0.924 ± 0.06	0.764 ± 0.06	0.633 ± 0.06
x1 = 2.16e-05, x2 = 0.001242	0.931 ± 0.06	0.77 ± 0.06	0.638 ± 0.06
x1 = 2.162e-05, x2 = 0	0.9 ± 0.06	0.745 ± 0.06	0.617 ± 0.06

C=Cn1cc[n+](CCCC)c1.NCC(=O)[O-] + O
101.3 kPa
Conditions	electrical conductivity [S/m]	viscosity [mPa·s]
293.15 K, x1 = 0.5	–	59.3 ± 1.1
293.15 K, x1 = 0.9	–	1599 ± 560
303.15 K, x1 = 0.5	2.58 ± 0.038	43.4 ± 1
303.15 K, x1 = 1	0.009 ± 0.002	9300
308.15 K, x1 = 0.1	1.11 ± 0.051	–
308.15 K, x1 = 0.7	1.99 ± 0.22	–
308.15 K, x1 = 0.9	0.48 ± 0.079	–
308.15 K, x1 = 1	0.012 ± 0.002	–
318.15 K, x1 = 0.5	3.58 ± 0.074	–
333.15 K, x1 = 0.3	–	10.48 ± 0.25
333.15 K, x1 = 1	–	1753 ± 630
343.15 K, x1 = 0.3	–	10.08 ± 0.24
343.15 K, x1 = 1	–	1089 ± 340
353.15 K, x1 = 0.5	–	21.66 ± 0.52
353.15 K, x1 = 0.9	–	520 ± 120
353.15 K, x1 = 1	–	730 ± 200

O=S=O + OCCO + C[P+](c1ccccc1)(c1ccccc1)c1ccccc1.[Br-]
100 kPa
Conditions	viscosity [mPa·s]
303.15 K, x1 = 0.02458, x2 = 0.9516	18.4 ± 0.8
313.15 K, x1 = 0.01623, x2 = 0.9598	14 ± 0.6
323.15 K, x1 = 0.01303, x2 = 0.9629	10.1 ± 0.4
333.15 K, x1 = 0.01147, x2 = 0.9644	7.5 ± 0.4
343.15 K, x1 = 0.009705, x2 = 0.9661	6 ± 0.3

CCCCCCCC[n+]1ccc(C)cc1.[Br-] + CO/N=C(\C(=O)N[C@@H]1C(=O)N2C(C(=O)[O-])=C(CSc3nc(=O)c(=O)[n-]n3C)CS[C@H]12)c1csc(N)n1.[Na+].[Na+] + O
viscosity [mPa·s], 100 kPa
Conditions	288.15 K	293.15 K	298.15 K	303.15 K	308.15 K
x2 = 0, x1 = 0.0006354	1.179 ± 0.049	1.031 ± 0.042	0.915 ± 0.038	0.817 ± 0.034	0.737 ± 0.03
x2 = 0, x1 = 0.0009577	1.196 ± 0.049	1.046 ± 0.043	0.929 ± 0.038	0.833 ± 0.034	0.749 ± 0.031
x2 = 0, x1 = 0.001283	1.217 ± 0.05	1.063 ± 0.044	0.941 ± 0.039	0.844 ± 0.035	0.76 ± 0.031
x2 = 0.0003362, x1 = 0.0009574	1.244 ± 0.051	1.089 ± 0.045	0.97 ± 0.04	0.867 ± 0.036	0.781 ± 0.032
x2 = 0.0003451, x1 = 0.001283	1.269 ± 0.052	1.108 ± 0.046	0.977 ± 0.04	0.863 ± 0.035	0.786 ± 0.032
x2 = 0.0003509, x1 = 0.0006352	1.243 ± 0.051	1.076 ± 0.044	0.949 ± 0.039	0.847 ± 0.035	0.77 ± 0.032
x2 = 0.0008524, x1 = 0.0006349	1.314 ± 0.054	1.15 ± 0.047	1.021 ± 0.042	0.909 ± 0.037	0.816 ± 0.034
x2 = 0.0008642, x1 = 0.001282	1.358 ± 0.056	1.183 ± 0.049	1.047 ± 0.043	0.937 ± 0.039	0.842 ± 0.035
x2 = 0.0008856, x1 = 0.0009569	1.333 ± 0.055	1.169 ± 0.048	1.039 ± 0.043	0.929 ± 0.038	0.828 ± 0.034
x2 = 0.001395, x1 = 0.0006346	1.411 ± 0.058	1.235 ± 0.051	1.094 ± 0.045	0.974 ± 0.04	0.873 ± 0.036
x2 = 0.0014, x1 = 0.0009564	1.452 ± 0.06	1.252 ± 0.052	1.109 ± 0.046	0.989 ± 0.041	0.885 ± 0.036
x2 = 0.00141, x1 = 0.001281	1.459 ± 0.06	1.271 ± 0.053	1.124 ± 0.046	1.004 ± 0.041	0.901 ± 0.037
x2 = 0.001941, x1 = 0.0006342	1.52 ± 0.063	1.33 ± 0.055	1.174 ± 0.048	1.046 ± 0.043	0.936 ± 0.039
x2 = 0.001965, x1 = 0.0009558	1.543 ± 0.064	1.351 ± 0.056	1.194 ± 0.049	1.064 ± 0.044	0.953 ± 0.039
x2 = 0.00197, x1 = 0.001281	1.576 ± 0.065	1.374 ± 0.057	1.209 ± 0.05	1.084 ± 0.045	0.97 ± 0.04
x2 = 0.002508, x1 = 0.0006339	1.642 ± 0.068	1.433 ± 0.059	1.264 ± 0.052	1.124 ± 0.046	1.006 ± 0.041
x2 = 0.00254, x1 = 0.0009553	1.671 ± 0.069	1.46 ± 0.06	1.287 ± 0.053	1.145 ± 0.047	1.023 ± 0.042
x2 = 0.00255, x1 = 0.00128	1.705 ± 0.071	1.487 ± 0.062	1.308 ± 0.054	1.165 ± 0.048	1.042 ± 0.043
x2 = 0.003119, x1 = 0.0006335	1.786 ± 0.074	1.558 ± 0.064	1.372 ± 0.056	1.219 ± 0.05	1.091 ± 0.045
x2 = 0.003121, x1 = 0.0009547	1.817 ± 0.075	1.587 ± 0.065	1.397 ± 0.058	1.239 ± 0.051	1.108 ± 0.046
x2 = 0.003147, x1 = 0.001279	1.858 ± 0.077	1.622 ± 0.067	1.427 ± 0.059	1.267 ± 0.052	1.133 ± 0.047
x2 = 0.003941, x1 = 0.0006329	2.01 ± 0.083	1.747 ± 0.072	1.535 ± 0.063	1.359 ± 0.056	1.212 ± 0.05
x2 = 0.003972, x1 = 0.0009539	2.048 ± 0.084	1.776 ± 0.073	1.562 ± 0.064	1.382 ± 0.057	1.233 ± 0.051
x2 = 0.003997, x1 = 0.001278	2.093 ± 0.087	1.814 ± 0.075	1.593 ± 0.066	1.411 ± 0.058	1.256 ± 0.052
x2 = 0.004812, x1 = 0.0006324	2.281 ± 0.094	1.979 ± 0.082	1.732 ± 0.071	1.528 ± 0.063	1.36 ± 0.056
x2 = 0.004853, x1 = 0.0009531	2.331 ± 0.096	2.019 ± 0.083	1.768 ± 0.073	1.557 ± 0.064	1.385 ± 0.057
x2 = 0.004881, x1 = 0.001277	2.385 ± 0.099	2.057 ± 0.085	1.804 ± 0.075	1.588 ± 0.066	1.409 ± 0.058
x2 = 0.005508, x1 = 0.000632	2.52 ± 0.1	2.189 ± 0.09	1.911 ± 0.079	1.681 ± 0.069	1.492 ± 0.061
x2 = 0.005554, x1 = 0.0009524	2.59 ± 0.11	2.238 ± 0.092	1.952 ± 0.081	1.714 ± 0.071	1.52 ± 0.063
x2 = 0.005588, x1 = 0.001276	2.64 ± 0.11	2.289 ± 0.095	1.996 ± 0.083	1.757 ± 0.073	1.559 ± 0.064

c1ccsc1 + N#C[C-](C#N)C#N.OCCC[n+]1ccccc1
101 kPa, x2 = 0
Conditions	viscosity [mPa·s]
293.15 K	0.653 ± 0.065
298.15 K	0.615 ± 0.062
303.15 K	0.58 ± 0.058
308.15 K	0.545 ± 0.055
313.15 K	0.518 ± 0.052
318.15 K	0.491 ± 0.049
323.15 K	0.464 ± 0.047
328.15 K	0.441 ± 0.044
333.15 K	0.42 ± 0.042
338.15 K	0.4 ± 0.04
343.15 K	0.382 ± 0.038
348.15 K	0.364 ± 0.037

c1ccsc1 + CCCC[n+]1ccn(C)c1.O=S(=O)([N-]S(=O)(=O)C(F)(F)F)C(F)(F)F
viscosity [mPa·s], 100 kPa
Conditions	x1 = 0.089	x1 = 0.276	x1 = 0.561	x1 = 1
298.15 K	–	–	14.73 ± 0.79	0.655 ± 0.094
308.15 K	29 ± 1.5	18.8 ± 1	–	–
